In US8748417B2, “Amino-pyrrolidine-azetidine diamides as monoacylglycerol lipase inhibitors” (Janssen Pharmaceutica, NV, priority 2010, dated 2014):

Biological target: T1, purified mutant MGL (mut-MGLL 11-313 L179S L186S) (Homo sapiens, UniProt Q99685, L169S/L176S)
T1 construct: purified mutant MGL (mut-MGLL 11-313 L179S L186S)
T1 sequence (Q99685 1-303 L169S/L176S): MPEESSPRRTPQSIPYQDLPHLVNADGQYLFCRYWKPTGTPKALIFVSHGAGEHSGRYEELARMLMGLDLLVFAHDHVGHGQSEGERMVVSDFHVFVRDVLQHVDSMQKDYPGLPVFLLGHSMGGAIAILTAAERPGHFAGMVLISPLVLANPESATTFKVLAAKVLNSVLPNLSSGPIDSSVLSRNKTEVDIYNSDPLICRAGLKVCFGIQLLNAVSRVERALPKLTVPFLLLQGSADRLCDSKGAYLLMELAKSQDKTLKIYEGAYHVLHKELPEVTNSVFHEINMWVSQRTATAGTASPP
Experiment: MGL enzyme activity assay (4MU-B cleavage), mutant MGL
Assay type: biochemical
Conditions: mutant MGL 5 nM, 4MU-B 10 μM, 37° C.; read-out: MGL mutant inh IC50
Method: All rate-based assays were performed in black 384-well polypropylene PCR microplates (Abgene) in a total volume of 30 μL. Substrate 4-methylumbelliferyl butyrate (4MU-B; Sigma) and either purified mutant MGL (mut-MGLL 11-313 L179S L186S) or purified wild type MGL (wt-MGLL 6H-11-313) were diluted separately into 20 mM PIPES buffer (pH=7.0), containing 150 mM NaCl and 0.001% Tween 20. Compounds of Formula (I) were pre-dispensed (50 nL) into the assay plate using a Cartesian Hummingbird prior to adding 4MU-B (25 μL of 1.2× solution to a final concentration of 10 μM) followed by enzyme (5 μL of a 6× solution to a final concentration of 5 nM) to initiate the reaction. Final compound concentrations ranged from 17 to 0.0003 μM. The fluorescence change due to 4MU-B cleavage was monitored with excitation and emission wavelengths of 335 and 440 nm, respectively, and a bandwidth of 10 nm (Safire^2, Tecan) at 37° C. for 5 min.
The IC50 values for the following compounds were determined using Microsoft Office Excel from a fit of the equation to the concentration-response plot of the fractional activity as a function of inhibitor concentration.

SMILES	IC50 [nM]
O=C(c1ccc(-c2ccccc2)cc1)N1CC(N[C@H]2CCN(C(=O)c3nccs3)C2)C1 [Cpd 1, (3S)-N-[1-(Biphenyl-4-ylcarbonyl)azetidin-3-yl]-1-(1,3-thiazol-2-ylcarbonyl)pyrrolidin-3-amine]	116
O=C(c1ccc(-c2ccccc2)cc1)N1CC(N[C@H]2CCN(C(=O)c3ccccc3)C2)C1 [Cpd 2, (3S)-N-[1-(Biphenyl-4-ylcarbonyl)azetidin-3-yl]-1-(phenylcarbonyl)pyrrolidin-3-amine]	122
O=C(c1ccc(Cc2ccccc2)cc1)N1CC(N[C@@H]2CCN(C(=O)c3nccs3)C2)C1 [Cpd 6, (3R)-N-{1-[(4-Benzylphenyl)carbonyl]azetidin-3-yl}-1-(1,3-thiazol-2-ylcarbonyl)pyrrolidin-3-amine]	490
O=C(c1ccc(Cc2ccccc2)cc1)N1CC(N[C@@H]2CCN(C(=O)c3ccccc3)C2)C1 [Cpd 7, (3R)-N-{1-[(4-Benzylphenyl)carbonyl]azetidin-3-yl}-1-(phenylcarbonyl)pyrrolidin-3-amine]	2060
O=C(c1nccs1)N1CC[C@H](NC2CN(C(=O)N3CCc4cc(Br)ccc4C3)C2)C1 [Cpd 10, (S)-(3-((1-(6-Bromo-1,2,3,4-tetrahydroisoquinoline-2-carbonyl)azetidin-3-yl)amino)pyrrolidin-1-yl)(thiazol-2-yl)methanone]	2910
O=C(c1nccs1)N1CC[C@H](NC2CN(C(=O)N3CCc4cc(-c5ccccc5)ccc4C3)C2)C1 [Cpd 11, (S)-(3-((1-(6-Phenyl-1,2,3,4-tetrahydroisoquinoline-2-carbonyl)azetidin-3-yl)amino)pyrrolidin-1-yl)(thiazol-2-yl)methanone]	344
O=C(c1nccs1)N1CC[C@H](NC2CN(C(=O)N3Cc4ccc(Br)cc4C3)C2)C1 [Cpd 12, (3S)-N-{1-[(5-Bromo-1,3-dihydro-2H-isoindol-2-yl)carbonyl]azetidin-3-yl}-1-(1,3-thiazol-2-ylcarbonyl)pyrrolidin-3-amine]	6210
O=C(c1nccs1)N1CC[C@H](NC2CN(C(=O)N3Cc4ccc(-c5ccccc5)cc4C3)C2)C1 [Cpd 13, (3S)-N-{1-[(5-Phenyl-1,3-dihydro-2H-isoindol-2-yl)carbonyl]azetidin-3-yl}-1-(1,3-thiazol-2-ylcarbonyl)pyrrolidin-3-amine]	720
O=C(c1ccccc1)N1CC[C@H](NC2CN(C(=O)c3cc4cc(C(F)(F)F)ccc4s3)C2)C1 [Cpd 19, (3S)-1-(Phenylcarbonyl)-N-(1-{[5-(trifluoromethyl)-1-benzothiophen-2-yl]carbonyl}azetidin-3-yl)pyrrolidin-3-amine]	361
O=C(c1ccc2c(-c3ccc(OC(F)(F)F)cc3)cccc2c1)N1CC(N[C@H]2CCN(C(=O)c3ccccc3)C2)C1 [Cpd 26, (3S)-1-(Phenylcarbonyl)-N-[1-({5-[4-(trifluoromethoxy)phenyl]naphthalen-2-yl}carbonyl)azetidin-3-yl]pyrrolidin-3-amine]	125
O=C(c1ccc(-c2ccc(C(F)(F)F)cc2)cc1)N1CC(N[C@H]2CCN(C(=O)c3ccccc3)C2)C1 [Cpd 35, (3S)-1-(Phenylcarbonyl)-N-(1-{[4′-(trifluoromethyl)biphenyl-4-yl]carbonyl}azetidin-3-yl)pyrrolidin-3-amine]	158
O=C(c1ccc(-c2ccc(OC(F)(F)F)cc2)cc1)N1CC(N[C@H]2CCN(C(=O)c3ccccc3)C2)C1 [Cpd 36, (3S)-1-(Phenylcarbonyl)-N-(1-{[4′-(trifluoromethoxy)biphenyl-4-yl]carbonyl}azetidin-3-yl)pyrrolidin-3-amine]	189
O=C(c1ccccc1)N1CC[C@H](NC2CN(C(=O)c3cc4ccc(Br)cc4s3)C2)C1 [Cpd 38, (3S)-N-{1-[(6-Bromo-1-benzothiophen-2-yl)carbonyl]azetidin-3-yl}-1-(phenylcarbonyl)pyrrolidin-3-amine]	301
